# Results: patent publication US20210177814A1, “USE OF GUANABENZ OR DERIVATES THEREOF FOR THE TREATMENT OF TYPE I IFN-DEPENDENT PATHOLOGIES” (INSERM (Institut National de la Santé et de la Recherche …, priority 2018, published 2021)
# Molecular target: T1, TLR9 (Homo sapiens, UniProt Q9NR96)
# T1 sequence (Q9NR96 26-1032): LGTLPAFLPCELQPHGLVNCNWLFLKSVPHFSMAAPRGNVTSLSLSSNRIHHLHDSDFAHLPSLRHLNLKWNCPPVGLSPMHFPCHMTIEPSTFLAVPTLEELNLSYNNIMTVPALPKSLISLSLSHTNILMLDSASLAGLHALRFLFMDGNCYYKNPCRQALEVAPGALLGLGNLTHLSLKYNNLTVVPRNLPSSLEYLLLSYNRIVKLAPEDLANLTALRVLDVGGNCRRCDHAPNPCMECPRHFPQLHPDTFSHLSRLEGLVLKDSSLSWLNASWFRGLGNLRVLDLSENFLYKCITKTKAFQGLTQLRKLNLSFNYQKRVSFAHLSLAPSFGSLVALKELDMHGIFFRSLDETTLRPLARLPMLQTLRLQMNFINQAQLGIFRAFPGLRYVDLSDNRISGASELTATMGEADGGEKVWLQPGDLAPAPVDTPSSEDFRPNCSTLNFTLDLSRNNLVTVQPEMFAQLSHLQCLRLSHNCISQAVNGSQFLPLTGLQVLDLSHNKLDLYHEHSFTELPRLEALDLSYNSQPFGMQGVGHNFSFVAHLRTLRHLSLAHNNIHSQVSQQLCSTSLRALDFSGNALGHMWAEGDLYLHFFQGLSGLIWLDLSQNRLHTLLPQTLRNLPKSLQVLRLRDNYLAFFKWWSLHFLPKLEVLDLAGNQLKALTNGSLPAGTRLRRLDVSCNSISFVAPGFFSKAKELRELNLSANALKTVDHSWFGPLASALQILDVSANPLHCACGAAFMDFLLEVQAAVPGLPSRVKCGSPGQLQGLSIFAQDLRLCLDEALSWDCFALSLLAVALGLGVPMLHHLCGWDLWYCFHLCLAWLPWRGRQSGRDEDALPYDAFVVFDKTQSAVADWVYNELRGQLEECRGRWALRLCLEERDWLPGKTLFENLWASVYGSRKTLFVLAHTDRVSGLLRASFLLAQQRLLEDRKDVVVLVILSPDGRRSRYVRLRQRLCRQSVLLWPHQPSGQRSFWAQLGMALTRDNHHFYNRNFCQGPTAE
# Test: Cytokine secretion by human primary blood pDCs activated with CpG ODN 2216 or lupus patient serum
# Format: cell-based
# Parameters: endogenous in cells; host or cells: human primary blood pDCs
# Settings: 3 μM CpG ODN 2216 or 2% lupus serum, GBZ 50 μM
# Method: FIG. 1: Guanabenz inhibits TLR3 and TLR9 activation in mouse Flt3-L DCs and human blood pDCs. A) Sorted bone marrow derived Flt3L-DCs were activated for 6 h with 10 μg/mL poly I:C LMW (TLR3 in DC1) or 1 μM ODN 1585 (TLR9 in pDCs). GBZ was added at 50 μM and inhibited IFN-β and Interleukin-6 (IL-6) production in activated cells. B) hTLR4, hTLR3, hTLR9 and hTLR7 expressed in the reporter HEK-Blue™ cells are inhibited by GBZ. TLR-expressing HEK-Blue™ cells were respectively activated with 100 ng/mL LPS, 10 μg/mL poly I:C LMW, 2.5 μM ODN 2006 or 5 μg/mL imiquimod, respectively. GBZ was added at 50 μM. TLR activity was measured indirectly through SEAP activity as absorbance at 405 nm. […] Protein concentration of IFN-α and TNF-α secreted were measured at the indicated time points or at 16 h. […]
# Mouse IFN-β quantification in culture supernatant was performed using the Mouse Interferon Beta ELISA kit (PBL InterferonSource); mouse IL-6, TNFα, IL-10, human TNFα and human IFNα were quantified using ELISA kit (eBioscience) respectively, according to manufacturer instructions.
# Given the efficiency of GBZ on mouse TLR3 and TLR9, we turned to human TLRs, in order to extend the relevance of our observations. GBZ-mediated inhibition was first evaluated on NF-kB signaling by monitoring secreted alkaline phosphatase (SEAP) reporter levels in HEK-293 cells expressing TLR3, TLR4, TLR7, TLR9 (FIG. 1B). […]
smiles,measurement,value
"NC(N)=N/N=C/c1c(Cl)cccc1Cl [GBZ, 2-(2,6-dichlorobenzylidene)-hydrazinecarboximidamide]",production of TNF-α,prevented
same,production of type-I IFN (IFN-α),prevented
